Read-outs that look alike come from different tables or passages of the source.
Tests used:
[1] = target: T1, APN (Microsomal Leucine aminopeptidase from porcine kidney EC 3.4.11.2) (Sus scrofa, UniProt P15145); test: APN inhibitory activity, spectrophotometry with L-leucine-p-nitroanilide; type: biochemical
T1 construct: Microsomal Leucine aminopeptidase from porcine kidney EC 3.4.11.2, Type IV-S, ammonium sulfate suspension; purchased Sigma-Aldrich; host or cells: porcine kidney (tissue-derived, microsomal)
T1 sequence (P15145 1-963): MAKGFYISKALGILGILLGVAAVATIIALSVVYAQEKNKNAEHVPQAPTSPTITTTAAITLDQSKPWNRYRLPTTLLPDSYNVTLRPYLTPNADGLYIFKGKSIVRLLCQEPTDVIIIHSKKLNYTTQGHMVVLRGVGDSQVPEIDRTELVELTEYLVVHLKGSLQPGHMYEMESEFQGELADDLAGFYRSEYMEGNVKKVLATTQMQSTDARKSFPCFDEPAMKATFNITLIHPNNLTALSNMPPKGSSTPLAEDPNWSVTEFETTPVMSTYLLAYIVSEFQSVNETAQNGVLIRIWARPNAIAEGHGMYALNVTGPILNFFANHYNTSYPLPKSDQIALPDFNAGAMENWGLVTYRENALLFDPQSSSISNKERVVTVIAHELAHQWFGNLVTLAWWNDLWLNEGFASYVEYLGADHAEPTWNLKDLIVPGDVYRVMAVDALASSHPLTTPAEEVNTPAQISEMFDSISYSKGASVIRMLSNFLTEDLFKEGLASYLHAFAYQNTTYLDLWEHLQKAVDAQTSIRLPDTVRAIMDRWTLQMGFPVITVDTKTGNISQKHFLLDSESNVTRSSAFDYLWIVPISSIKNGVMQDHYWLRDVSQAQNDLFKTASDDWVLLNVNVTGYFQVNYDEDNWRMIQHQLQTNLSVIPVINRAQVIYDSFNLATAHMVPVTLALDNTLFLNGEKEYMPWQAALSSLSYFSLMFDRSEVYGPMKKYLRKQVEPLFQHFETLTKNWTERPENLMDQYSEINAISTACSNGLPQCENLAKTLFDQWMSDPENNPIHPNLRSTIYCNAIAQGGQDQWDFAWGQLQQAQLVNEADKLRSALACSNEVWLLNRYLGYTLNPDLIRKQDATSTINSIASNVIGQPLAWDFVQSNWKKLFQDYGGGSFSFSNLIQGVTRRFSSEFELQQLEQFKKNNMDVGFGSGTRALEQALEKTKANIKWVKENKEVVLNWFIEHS
Protocol: APN inhibitory activity was determined using a standardized spectrophotometry protocol using L-leucine-p-nitroanilide as a chromogenic substrate for APN. Measurements were performed in triplicate at 405 nm at a Cytation 3 well-plate reader.
In some compounds, solubility problems occurred, which complicated the inhibition activity determination. We overcame these either by the use of cosolvents or by an alternative HPLC approach. The details are summarized in the Supplementary Materials.
IC50 values against enzyme APN were determined using L-Leucine-p-nitroanilide (Sigma-Aldrich, Darmstadt, Germany) as the substrate and Microsomal Leucine aminopeptidase from porcine kidney EC 3.4.11.2, Type IV-S, ammonium sulfate suspension, 10–40 units/mg protein (Sigma-Aldrich, Darmstadt, Germany). The assay was performed by a Cytation 3 Cell Imaging Multi-Mode Reader (BioTek Instruments, Inc., Winooski, VT, USA) with appropriate Gen-5 software in 96-well plates. A 0.02 mol/L TRIS-HCl buffer solution at pH 7.5 was used as the assay buffer. All tested compounds were dissolved in TRIS-HCl buffer solution and compounds with poor solubility were dissolved in a small amount of DMSO or NMP used as a cosolvent. The assay mixture, which contained a variable amount of inhibitor solution (from 0 up to 80 μL), 10 μL of the enzyme solution, 5 μL of the substrate solution, and the assay buffer adjusted to 200 μL, was incubated at 37 °C for 40 min with short orbital shaking for 10 s. The hydrolysis of the substrate was monitored by the optical photometric method of absorbance in the visible and ultraviolet regions at a wavelength of 405 nm. The enzyme activity inhibitory rate was calculated from the measures of absorbance. The results of the 50% inhibitory activity of the enzyme (IC50) were determined through a regression analysis of the concentration/absorbance data by GraFit 5 software (Erithacus Software Ltd., East Grinstead, UK).

[2] = test system: THP-1 cells; test: WST-1 analysis of cell proliferation, THP-1; type: cell-based, human; settings: for Proliferation of control: 48 h
Protocol: (§1) The results are shown in Table 4, Figure 2, and the Supplementary Materials.
(§2) A human monocytic leukemia cell line (THP-1), human breast adenocarcinoma cells (MCF-7), and human prostate cancer (DU-145) cell line were obtained from ATCC. THP-1 and DU-145 cells were cultivated in an RPMI 1640 culture medium and MCF-7 cells were cultivated in a DMEM medium, both supplemented with the antibiotic solution (100 U/mL of penicillin, 100 µg/mL of streptomycin) and 10% FBS. Cells were maintained in a humidified incubator with 5% CO2 at 37 °C and were regularly tested for the presence of mycoplasma contamination.
(§3) THP-1, MCF-7, and DU-145 cells were seeded in 96-well plates. Adherent cell lines were allowed to attach to the wells for 24 h. Cells were then treated with various concentrations of tested compounds to reach the final concentrations ranging between 1 µM and 100 µM and were incubated for 48 h. Cell proliferation was determined using Cell Proliferation Reagent WST-1 (2-(4-iodophenyl)-3-(4-nitrophenyl)-5-(2,4-disulfophenyl)-2H-tetrazolium) (Roche Diagnostics, Mannheim, Germany), as previously described. WST-1 analysis was performed in three independent experiments, with each condition tested in triplicate. The IC50 values were determined using the nonlinear regression four-parameter logistic model using GraphPad Prism 5.00 software (GraphPad Software, San Diego, CA, USA). Statistical significance between the values was assessed by one-way analysis of variance (ANOVA) paired with Dunnett’s post hoc test using GraphPad Prism 5.00 software (GraphPad Software, San Diego, CA, USA) at levels of * p < 0.05, ** p < 0.01, and *** p < 0.001.

[3] = test system: MCF-7 cells; test: WST-1 analysis of cell proliferation, MCF-7; type: cell-based, human; settings: for Proliferation of control: 48 h
Protocol: as §1, §2, §3

[4] = test system: DU-145 cells; test: WST-1 analysis of cell proliferation, DU-145; type: cell-based, human; settings: for Proliferation of control: 48 h
Protocol: as §1, §2, §3

[5] = TRIS-HCl buffer pH 7.5, 37 °C, 40 min, no cosolvent noted, read-out: IC50 Experimental
[6] = logarithm of IC50 in µmol/L, read-out: Log IC50 Experimental (converted)
[7] = NMP as a cosolvent, read-out: IC50 Experimental
[8] = DMSO as a cosolvent, read-out: IC50 Experimental

SMILES: CCCN(CCC)CC(=O)Nc1ccc(C(C)=NNC(N)=S)cc1 [24-3-1]
- IC50 [1, 5]: 1270 µM
- IC50 [1, 6]: 1270 µM

SMILES: CC(=NNC(N)=S)c1ccccc1NC(=O)CN1CCCCCC1 [22-7-1]
- IC50 [1, 5]: 169 µM
- IC50 [1, 6]: 169 µM

SMILES: CC(=NNC(N)=S)c1ccc(NC(=O)CN2CCCCC2)cc1 [24-6-1]
- IC50 [1, 7]: 1550 µM
- IC50 [1, 6]: 1550 µM

SMILES: CC(=NNC(N)=S)c1ccc(NC(=O)CN2CCOCC2)cc1 [24-8-1, 4-[(morpholine-4-yl)acetamido]acetophenone thiosemicarbazone]
- IC50 [1, 6]: 6.79 µM

SMILES: CC(=O)c1ccc(NC(=O)CN2CCN(Cc3ccccc3)CC2)cc1 [14-10-1]
- IC50 [1, 8]: 427 µM

SMILES: CC(=NNC(N)=S)c1ccc(NC(=O)CN2CCCC2)cc1 [24-5-1]
- IC50 [1, 7]: 35.6 µM
- IC50 [1, 6]: 35.6 µM

SMILES: CC(=NNC(N)=S)c1ccccc1NC(=O)CN1CCCCC1 [22-6-1]
- IC50 [1, 5]: 778 µM

SMILES: CC(=O)c1ccc(NC(=O)CN2CCCCC2)cc1 [14-6-1]
- IC50 [1, 5]: 173 µM

SMILES: CC(=NNC(N)=O)c1ccc(NC(=O)CN2CCCCC2)cc1 [34-6-1, 4-[2-(piperidine-1-yl)acetamido]acetophenone semicarbazone]
- IC50 [1, 5]: 18.4 µM
- IC50 [1, 6]: 18.4 µM
- IC50 ([2]; Homo sapiens, THP-1, 48 h incubation): > 100 µM
- Proliferation of control ([2]; THP-1, 1 μmol/l): 97.78%
- Proliferation of control ([2]; THP-1, 5 μmol/l): 97.58%
- Proliferation of control ([2]; THP-1, 10 μmol/l): 93.87%
- Proliferation of control ([2]; THP-1, 30 μmol/l): 86.64%
- Proliferation of control ([2]; THP-1, 50 μmol/l): 73.78%
- Proliferation of control ([2]; THP-1, 75 μmol/l): 71.38%
- Proliferation of control ([2]; THP-1, 100 μmol/l): 69.17%
- IC50 ([3]; Homo sapiens, MCF7, MCF-7, 48 h incubation): > 100 µM
- Proliferation of control ([3]; MCF-7, 1 μmol/l): 100.09%
- Proliferation of control ([3]; MCF-7, 5 μmol/l): 96.80%
- Proliferation of control ([3]; MCF-7, 10 μmol/l): 97.62%
- Proliferation of control ([3]; MCF-7, 30 μmol/l): 96.30%
- Proliferation of control ([3]; MCF-7, 50 μmol/l): 99.57%
- Proliferation of control ([3]; MCF-7, 75 μmol/l): 85.41%
- Proliferation of control ([3]; MCF-7, 100 μmol/l): 81.17%
- Proliferation of control ([4]; DU-145, 1 μmol/l): 98.33%
- Proliferation of control ([4]; DU-145, 5 μmol/l): 98.26%
- Proliferation of control ([4]; DU-145, 10 μmol/l): 97.24%
- Proliferation of control ([4]; DU-145, 30 μmol/l): 97.25%
- Proliferation of control ([4]; DU-145, 50 μmol/l): 96.59%
- Proliferation of control ([4]; DU-145, 75 μmol/l): 99.61%
- Proliferation of control ([4]; DU-145, 100 μmol/l): 99.25%
- antiproliferative effect (in words) ([4]; DU-145, no APN expression): did not affect proliferation at all
- IC50 ([4]; Homo sapiens, DU-145, 48 h incubation): > 100 µM

SMILES: CC(=NNC(N)=S)c1ccc(NC(=O)CN2CCCCCC2)cc1 [24-7-1]
- IC50 [1, 5]: 44.1 µM
- IC50 [1, 6]: 44.1 µM

SMILES: CCCCN(CCCC)CC(=O)Nc1ccc(C(C)=NNC(N)=S)cc1 [24-4-1]
- IC50 [1, 7]: 1680 µM
- IC50 [1, 6]: 1680 µM

SMILES: CCN(CC)CC(=O)Nc1ccc(C(C)=O)cc1 [14-2-1]
- IC50 [1, 8]: 366 µM
- IC50 [1, 6]: 366 µM

SMILES: CC(=O)c1ccc(NC(=O)CN2CCOCC2)cc1 [14-8-1]
- IC50 [1, 5]: 425 µM

SMILES: CC(=NNC(N)=O)c1ccc(NC(=O)CN2CCOCC2)cc1 [34-8-1]
- IC50 [1, 5]: 1640 µM
- IC50 [1, 6]: 1640 µM
- melting point: 231.1 to 231.8 °C
